How the values were obtained:
Format in all cases: in vivo
[1] = tested on: hypotension induced by substance P; test: Antagonism of hypotension induced by substance P (Maggi et al.); conditions: Cavia porcellus, iv; guinea-pig; hypotension induced by i.v. injection of 250 ng/kg of substance P; read-out: ED50, dose which reduces by 50% the hypotension
Protocol: Injection of substance P into the animal causes hypotension. The products studied by the technique of C. A. Maggi et al., J. Auton. Pharmac., 7, 11-32 (1987) show an antagonistic effect with respect to this hypotension in the guinea-pig. The ED50, the dose which reduces by 50% the hypotension induced by an i.v. injection of 250 ng/kg of substance P, is determined.

[2] = tested on: increase in capillary permeability caused by septide (agonist of substance P); test: Inhibition of the increase in capillary permeability caused by septide (Saria et al., adapted for the guinea-pig); conditions: Cavia porcellus
Text: Study of certain isoindole derivatives of the general formula (IV) by the technique of A. Saria et al., Arch.

[3] = tested on: bronchospasm induced by [Pro^9 ] substance P; test: Inhibition of bronchospasm induced by [Pro9] substance P (Konzett and Rossler); conditions: Cavia porcellus, iv; guinea-pig; bronchospasm induced by 3 μg/kg i.v. of [Pro9] substance P; read-out: ED50, dose which reduces by 50% the bronchospasm
Text: Injection of substance P causes a bronchospasm in the animal. The bronchoconstriction induced in vivo in the guinea-pig by injection of substance P or of a selective agonist of substance P: [Pro^9 ] substance P is studied by the technique of H. Konzett and R. Rosseler, Archiv. Exp. Path. Pharmak., 195, 71-74 (1940). This bronchoconstriction is inhibited by injection of a product of the general formula (IV), which is evidence of an antiasthmatic activity. The ED50, the dose which reduces by 50 % the bronospasm induced by 3 μg/kg i.v. of [Pro^9 ] substance P, is determined. In this technique, the ED50 of the product of Use Example 1 is 0.7 mg/kg i.v.

`COc1ccccc1[C@H](C)C(=O)N1C[C@@H]2[C@H](C1)C(c1ccccc1)(c1ccccc1)CC[C@@]2(O)c1ccccc1OC` [Use Example 1, (3aS,4S,7aS)-7,7-diphenyl-4-(2-methoxyphenyl)-2-[2-(2-methoxyphenyl)-(S)-propionyl]-perhydroisoindol-4-ol] showed an ED50 [1] of 0.15 mg/kg, an ED50 ([2]; iv) of 0.04 mg/kg and an ED50 ([2]; po) of 3.5 mg/kg. The ED50 [3] was 0.7 mg/kg.

Source: US5463077A, “Perhydroisoindole derivatives and preparation” (Rhone-Poulenc Rorer S.A., priority 1992, dated 1995)
